Measurements taken from patent US20170305943A1, “COMPOUNDS FOR THE TREATMENT OF BACTERIAL INFECTIONS” (priority 2014, published 2017).
In brackets after ≈: the same amount, converted by molar mass.

system: Clostridium difficile (Isolate ID ATCC 9689); test: Bacterial Assay: Determination of Antibacterial Activity (MIC, broth microdilution or agar dilution); assay type: cell-based; details: Clostridioides difficile, ATCC9689, 48 h, read-out: C. difficile MIC Activity Range
Summary of the method: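 MICs were set by CLSI broth microdilution or agar dilution for anaerobes, read visually after 48 hours at 37° C. under anaerobic gas packs. Medium was reinforced clostridial medium with 0.1% defibrinated horse blood; values are binned as A ≦1.01, B >1.0-4.0, C >4.0-16 μg/mL.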

NC(=O)c1c(F)ccc(NCCCCOc2ccc(C(F)(F)F)cn2)c1F [Compound 179, 2,6-difluoro-3-[(4-{[5-(trifluoromethyl)pyridin-2-yl]oxy}butyl)amino]benzamide] and NC(=O)c1c(F)ccc(OCCCCOc2ccc(C(F)(F)F)nn2)c1F [Compound 158, 2,6-difluoro-3-(4-{[6-(trifluoromethyl)pyridazin-3-yl]oxy}butoxy)benzamide] fall in the same range of MIC: 4 to 16 µg/mL (≈ 10.3 to 41.1 µM) for the first, 4 to 16 µg/mL (≈ 10.2 to 40.9 µM) for the second.

NC(=O)c1c(F)ccc(OCCCOc2ccc(Cl)cc2)c1F [Compound 124, 3-[3-(4-chlorophenoxy)propoxy]-2,6-difluorobenzamide] and NC(=O)c1c(F)ccc(OCCCCOc2cccc(Cl)c2)c1F [Compound 140, 3-[4-(3-chlorophenoxy)butoxy]-2,6-difluorobenzamide] fall in the same range of MIC: 1 to 4 µg/mL (≈ 2.93 to 11.7 µM) for the first, 1 to 4 µg/mL (≈ 2.81 to 11.2 µM) for the second.

First: CCCCCCCCCOc1ccc(F)c(C(=N)N)c1F [Compound 107, 2,6-difluoro-3-(nonyloxy)benzenecarboximidamide]
Second: NC(=O)c1c(F)ccc(OCCCCOc2cccc(Br)c2)c1F [Compound 172, 3-[4-(3-bromophenoxy)butoxy]-2,6-difluorobenzamide]
The MIC of the first is higher: 4 to 16 µg/mL (≈ 13.4 to 53.6 µM) for the first, 1 to 4 µg/mL (≈ 2.5 to 9.99 µM) for the second.

NC(=O)c1c(F)ccc(OC(COC(=O)Nc2cccnc2)c2nc(-c3ccc(C(F)(F)F)cc3)c(Br)o2)c1F (racemic) [Compound 64, 2-{5-bromo-4-[4-(trifluoromethyl)phenyl]-1,3-oxazol-2-yl}-2-(3-carbamoyl-2,4-difluorophenoxy)ethyl pyridin-3-ylcarbamate] and NC(=O)c1c(F)ccc(OC(COC(=O)NCCO)c2nc(-c3ccc(C(F)(F)F)cc3)c(Br)o2)c1F (stereo not drawn) [Compound 59, 2-{5-bromo-4-[4-(trifluoromethyl)phenyl]-1,3-oxazol-2-yl}-2-(3-carbamoyl-2,4-difluorophenoxy)ethyl (2-hydroxyethyl)carbamate] cannot be ordered by MIC: under 1.01 µg/mL for the first, under 1.01 µg/mL for the second.

CNCC(=O)OCC(Oc1ccc(F)c(C(N)=O)c1F)c1nc(-c2ccc(C(F)(F)F)cc2)c(Br)o1 (stereo not drawn) [Compound 39, 2-{5-bromo-4-[4-(trifluoromethyl)phenyl]-1,3-oxazol-2-yl}-2-(3-carbamoyl-2,4-difluorophenoxy)ethyl N-methylglycinate] and CCNC(=O)NCC(Oc1ccc(F)c(C(N)=O)c1F)c1nc(-c2ccc(C(F)(F)F)cc2)c(Br)o1 (racemic) [Compound 95, 3-(1-{5-bromo-4-[4-(trifluoromethyl)phenyl]-1,3-oxazol-2-yl}-2-[(ethylcarbamoyl)amino]ethoxy)-2,6-difluorobenzamide] cannot be ordered by MIC: under 1.01 µg/mL for the first, under 1.01 µg/mL for the second.

Cc1cc(CNC(=O)OCC(Oc2ccc(F)c(C(N)=O)c2F)c2nc(-c3ccc(C(F)(F)F)cc3)c(Br)o2)nn1C (stereo not drawn) [Compound 88, 2-{5-bromo-4-[4-(trifluoromethyl)phenyl]-1,3-oxazol-2-yl}-2-(3-carbamoyl-2,4-difluorophenoxy)ethyl [(1,5-dimethyl-1H-pyrazol-3-yl)methyl]carbamate] and NC(=O)c1c(F)ccc(OC(COC(=O)CCCN2C(=O)c3ccccc3C2=O)c2nc(-c3ccc(C(F)(F)F)cc3)c(Br)o2)c1F (stereo not drawn) [Compound 42, 2-{5-bromo-4-[4-(trifluoromethyl)phenyl]-1,3-oxazol-2-yl}-2-(3-carbamoyl-2,4-difluorophenoxy)ethyl 4-(1,3-dioxo-1,3-dihydro-2H-isoindo1-2-yl)butanoate] cannot be ordered by MIC: 1 to 4 µg/mL (≈ 1.52 to 6.08 µM) for the first, under 1.01 µg/mL for the second.

First: NC(=O)c1c(F)ccc(NCc2nc(-c3ccc(C(F)(F)F)cc3)cs2)c1F [Compound 122, 2,6-difluoro-3-[({4-[4-(trifluoromethyl)phenyl]-1,3-thiazol-2-yl}methyl)amino]benzamide]
Second: CCCc1oc(C(C)Oc2ccc(F)c(C(N)=O)c2F)nc1-c1ccc(OC(F)(F)F)cc1 (stereo not drawn) [Compound 28, 2,6-difluoro-3-(1-{5-propyl-4-[4-(trifluoromethoxy)phenyl]-1,3-oxazol-2-yl}ethoxy)benzamide]
The MIC of the first is lower: under 1.01 µg/mL for the first, 4 to 16 µg/mL (≈ 8.5 to 34 µM) for the second.

For NC(=O)c1c(F)ccc(OCCCCNc2ccc(Cl)cc2)c1F [Compound 142, 3-{4-[(4-chlorophenyl)amino]butoxy}-2,6-difluorobenzamide], the MIC was 1 to 4 µg/mL (≈ 2.82 to 11.3 µM).
